Assay results taken from patent US20230150986A1, “ANTAGONISTS OF THE MUSCARINIC ACETYLCHOLINE RECEPTOR M4” (Vanderbilt University, priority 2019, published 2023).

Molecular target: T1, Human M4 (Homo sapiens, UniProt P08173)
T1 construct: Human or rat M4 cDNA, along with the chimeric G protein Gq,5, were transfected into Chinese hamster ovary (CHO-K1) cells; expressed in transfected cells; host or cells: CHO-K1 (M4/Gqi5/CHO)
T1 sequence (P08173 1-479): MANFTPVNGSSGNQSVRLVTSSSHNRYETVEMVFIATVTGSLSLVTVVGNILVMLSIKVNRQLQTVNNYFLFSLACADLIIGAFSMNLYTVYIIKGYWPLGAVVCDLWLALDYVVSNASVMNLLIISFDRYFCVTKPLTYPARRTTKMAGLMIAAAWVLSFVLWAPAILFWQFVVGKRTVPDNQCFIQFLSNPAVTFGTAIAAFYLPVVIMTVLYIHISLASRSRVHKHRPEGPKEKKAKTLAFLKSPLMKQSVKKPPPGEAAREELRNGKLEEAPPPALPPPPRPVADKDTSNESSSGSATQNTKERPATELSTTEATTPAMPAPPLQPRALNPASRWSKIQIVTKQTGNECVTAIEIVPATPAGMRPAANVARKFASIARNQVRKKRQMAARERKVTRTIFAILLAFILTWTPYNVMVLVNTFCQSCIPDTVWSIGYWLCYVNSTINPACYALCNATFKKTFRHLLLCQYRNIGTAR
Experiment: mAChR M4 cell-based functional assay (calcium flux, decrease of EC80 acetylcholine response)
Conditions: for Human M4 Emin: % ACh maximum at 30 μM; for IC50: CHO-K1 cells with human M4 and Gqi5, EC80 acetylcholine
Protocol: Human or rat M4 cDNA, along with the chimeric G protein Gq,5, were transfected into Chinese hamster ovary (CHO-K1) cells purchased from the American Type Culture Collection using Lipofectamine2000. M4/Gqi5/CHO cells were grown in Ham's F-12 medium containing 10% heat-inactivated fetal bovine serum (FBS), 20 mM HEPES, 500 μg/mL G^418 sulfate, and 200 μg/mL Hygromycin B.
For high throughput measurement of agonist-evoked increases in intracellular calcium, CHO-K1 cells stably expressing muscarinic receptors were plated in growth medium lacking G418 and hygromycin at 15,000 cells/20 μL/well in Greiner 384-well black-walled, tissue culture (TC)-treated, clear-bottom plates (VWR). Cells were incubated overnight at 37° C. and 5% CO2. The next day, cells were washed using an ELX 405 (BioTek) with assay buffer; the final volume was then aspirated to 20 μL. Next, 20 μL of a 2.3 μM stock of Fluo-4/acetoxymethyl ester (Invitrogen, Carlsbad, Calif.), prepared as a 2.3 mM stock in DMSO and mixed in a 1:1 ratio with 10% (w/v) Pluronic F-127 and diluted in assay buffer, was added to the wells and the cell plates were incubated for 50 min at 37° C. and 5% CO2. Dye was removed by washing with the ELX 405 and the final volume was aspirated to 20 μL. Compound master plates were formatted in a 10 point concentration-response curve (CRC) format (1:3 dilutions) in 100% DMSO with a starting concentration of 10 or 1 mM using a BRAVO liquid handler (Agilent). Test compound CRCs were then transferred to daughter plates (240 nL) using the Echo acoustic plate reformatter (Labcyte, Sunnyvale, Calif.) and then diluted into assay buffer (40 μL) to a 2× stock using a Thermo Fisher Combi (Thermo Fisher Scientific, Waltham, Mass.).
Calcium flux was measured using the Functional Drug Screening System (FDSS) 6000 or 7000 (Hamamatsu Corporation, Tokyo, Japan) as an increase in the fluorescent static ratio. Compounds were applied to cells (20 μL, 2×) using the automated system of the FDSS at 2 seconds into the protocol and the data were collected at 1 Hz. At 143 s, 10 μL of an EC20 concentration of the muscarinic receptor agonist acetylcholine was added (5×), followed by the addition of […] of an EC80 concentration of acetylcholine at the 268 s time point (5×). Agonist activity was analyzed as a concentration-dependent increase in calcium mobilization upon compound addition. Positive allosteric modulator activity was analyzed as a concentration-dependent increase in the EC2o acetylcholine response. Antagonist activity was analyzed as a concentration-dependent decrease in the EC80 acetylcholine response; for the purposes of the tables herein, an IC50 (inhibitory concentration 50) was calculated as a concentration-dependent decrease of the response elicited by an EC80 concentration of acetylcholine. Concentration-response curves were generated using a four-parameter logistical equation in XLFit curve fitting software (IDBS, Bridgewater, N.J.) for Excel (Microsoft, Redmond, Wash.) or Prism (GraphPad Software, Inc., San Diego, Calif.) or the Dotmatics software platform (Dotmatics, Bishop's Stortford, UK).
Compounds were synthesized as described above. Activity (IC50 and Emin) was determined in the mAChR M4 cell-based functional assay as described above and the data are shown in Table 2.

Row | Compound | Human M4 Emin | IC50
1 | Fc1cc(F)c(F)c(-c2ccc(N[C@@H]3C[C@H]4CN(CC5CCOCC5)C[C@H]4[C@@H]3F)nn2)c1 (racemic) [Compound 86, (3aR,4R,5S,6aS)-4-fluoro-2-((tetrahydro-2H-pyran-4-yl)methyl)-N-(6-(2,3,5-trifluorophenyl)pyridazin-3-yl)octahydrocyclopenta[c]pyrrol-5-amine and (3aS,4S,5R,6aR)-4-fluoro-2-((tetrahydro-2H-pyran-4-yl)methyl)-N-(6-(2,3,5-trifluorophenyl)pyridazin-3-yl)octahydrocyclopenta[c]pyrrol-5-amine] | 2% | 3.1 nM
2 | C[C@]12C[C@H](Nc3ccc(-c4cc(F)cc(F)c4F)nn3)C[C@H]1CN(CC1CCOCC1)C2 (racemic) [Compound 88, (3aR,5S,6aS)-3a-methyl-2-((tetrahydro-2H-pyran-4-yl)methyl)-N-(6-(2,3,5-trifluorophenyl)pyridazin-3-yl)octahydrocyclopenta[c]pyrrol-5-amine and (3aS,5R,6aR)-3a-methyl-2-((tetrahydro-2H-pyran-4-yl)methyl)-N-(6-(2,3,5-trifluorophenyl)pyridazin-3-yl)octahydrocyclopenta[c]pyrrol-5-amine] | 17% | 1.2 nM
3 | Fc1cc(F)c(F)c(-c2ccc(N[C@H]3C[C@@H]4CN(CC5CCCOC5)C[C@@H]4C3)nn2)c1 (single isomer, unassigned) [Compound 24] | 3% | 13.7 nM
4 | Fc1cc(F)c(F)c(-c2ccc(N[C@H]3C[C@@H]4CN(CC5CCCOC5)C[C@@H]4C3)nn2)c1 (single isomer, unassigned) [Compound 25] | 3% | 5.7 nM
5 | Fc1cc(F)c(F)c(-c2ccc(N[C@H]3C[C@@H]4CN(CC5CCCCO5)C[C@@H]4C3)nn2)c1 (single isomer, unassigned) [Compound 26] | 3% | 1.24 nM
6 | Fc1cc(F)c(F)c(-c2ccc(N[C@H]3C[C@@H]4CN(CC5CCCCO5)C[C@@H]4C3)nn2)c1 (single isomer, unassigned) [Compound 27] | 4% | 2.14 nM
7 | Fc1cc(F)c(F)c(-c2ccc(N[C@H]3C[C@@H]4CN(CC5CCCCC5)C[C@@H]4C3)nn2)c1 [Compound 3, (3aR,5s,6aS)-2-(cyclohexylmethyl)-N-(6-(2,3,5-trifluorophenyl)pyridazin-3-yl)octahydrocyclopenta[c]pyrrol-5-amine] | 3% | 57.5 nM
8 | Fc1cc(F)c(F)c(-c2ccc(N[C@H]3C[C@@H]4CN(CCC5CCOCC5)C[C@@H]4C3)nn2)c1 [Compound 4, (3aR,5s,6aS)-2-(2-(tetrahydro-2H-pyran-4-yl)ethyl)-N-(6-(2,3,5-trifluorophenyl)pyridazin-3-yl)octahydrocyclopenta[c]pyrrol-5-amine] | 4% | 3.09 nM
9 | Fc1cc(F)c(F)c(-c2ccc(N[C@H]3C[C@@H]4CN(C5CCC6(CCOCC6)CC5)C[C@@H]4C3)nn2)c1 [Compound 5, (3aR,5s,6aS)-2-(3-oxaspiro[5.5]undecan-9-yl)-N-(6-(2,3,5-trifluorophenyl)pyridazin-3-yl)octahydrocyclopenta[c]pyrrol-5-amine] | 3% | 13.5 nM
10 | Fc1cc(F)c(F)c(-c2ccc(N[C@H]3C[C@@H]4CN(C5CCCCCC5)C[C@@H]4C3)nn2)c1 [Compound 6, (3aR,5s,6aS)-2-cycloheptyl-N-(6-(2,3,5-trifluorophenyl)pyridazin-3-yl)octahydrocyclopenta[c]pyrrol-5-amine] | 3% | 20.9 nM
11 | CC1(C)CC(N2C[C@H]3C[C@H](Nc4ccc(-c5cc(F)cc(F)c5F)nn4)C[C@H]3C2)CC(C)(C)O1 [Compound 7, (3aR,5s,6aS)-2-(2,2,6,6-tetramethyltetrahydro-2H-pyran-4-yl)-N-(6-(2,3,5-trifluorophenyl)pyridazin-3-yl)octahydrocyclopenta[c]pyrrol-5-amine] | 4% | 215 nM
12 | OC1(CN2C[C@H]3C[C@H](Nc4ccc(-c5cc(F)cc(F)c5F)nn4)C[C@H]3C2)CCCCC1 [Compound 9, 1-(((3aR,5s,6aS)-5-((6-(2,3,5-trifluorophenyl)pyridazin-3-yl)amino)hexahydrocyclopenta[c]pyrrol-2(1H)-yl)methyl)cyclohexan-1-ol] | 3% | 6.09 nM
13 | CC(C1CCOCC1)N1C[C@H]2C[C@H](Nc3ccc(-c4cc(F)cc(F)c4F)nn3)C[C@H]2C1 (stereo partly drawn) [Compound 10, (3aR,5s,6aS)-2-(1-(tetrabydro-2H-pyran-4-yl)ethyl)-N-(6-(2,3,5-trifluorophenyl)pyridazin-3-yl)octahydrocyclopenta[c]pyrrol-5-amine] | 4% | 5.7 nM
14 | CC1(CN2C[C@H]3C[C@H](Nc4ccc(-c5cc(F)cc(F)c5F)nn4)C[C@H]3C2)CCOCC1 [Compound 11, (3aR,5s,6aS)-2-((4-methyltetrahydro-2H-pyran-4-yl)methy)-N-(6-(2,3,5-trifluorophenyl)pyridazin-3-yl)octahydrocyclopenta[c]pyrrol-5-amine] | 3% | 4.63 nM
15 | [2H]C(C)(C1CCOCC1)N1C[C@H]2C[C@H](Nc3ccc(-c4cc(F)cc(F)c4F)nn3)C[C@H]2C1 (stereo partly drawn) [Compound 12, (3aR,5s,6aS)-2-(1-(tetrahydro-2H-pyran-4-yl)ethyl-1-d)-N-(6-(2,3,5-trifluorophenyl)pyridazin-3-yl)octahydrocyclopenta[c]pyrrol-5-amine] | 3% | 8.64 nM
16 | CC(c1ccccn1)N1C[C@H]2C[C@H](Nc3ccc(-c4cc(F)cc(F)c4F)nn3)C[C@H]2C1 (stereo partly drawn) [Compound 13, (3aR,5s,6aS)-2-(1-(pyridin-2-yl)ethyl)-N-(6-(2,3,5-trifluorophenyl)pyridazin-3-yl)octahydrocyclopenta[c]pyrrol-5-amine] | 3% | 74.6 nM
17 | [2H]C([2H])(N1C[C@H]2C[C@H](Nc3ccc(-c4cc(F)cc(F)c4F)nn3)C[C@H]2C1)C1(C)CCOCC1 [Compound 14, (3aR,5s,6aS)-2-((4-methyltetrahydro-2H-pyran-4-yl)methyl-d2)-N-(6-(2,3,5-trifluorophenyl)pyridazin-3-yl)octahydrocyclopenta[c]pyrrol-5-amine] | 2% | 6.13 nM
18 | [2H]C(C)(c1ccccn1)N1C[C@H]2C[C@H](Nc3ccc(-c4cc(F)cc(F)c4F)nn3)C[C@H]2C1 (stereo partly drawn) [Compound 15, (3aR,5s,6aS)-2-(1-(pyridin-2-yl)ethyl-1-d)-N-(6-(2,3,5-trifluorophenyl)pyridazin-3-yl)octahydrocyclopenta[c]pyrrol-5-amine] | 2% | 95.2 nM
19 | Cc1cccc(CN2C[C@H]3C[C@H](Nc4ccc(-c5cc(F)cc(F)c5F)nn4)C[C@H]3C2)n1 [Compound 16, (3aR,5s,6aS)-2-((6-methylpyridin-2-yl)methyl)-N-(6-(2,3,5-trifluorophenyl)pyridazin-3-yl)octahydrocyclopenta[c]pyrrol-5-amine] | 3% | 38 nM
